Where two headings read alike, the source gives them in different places.
How the values were obtained:
Mcl-1 = Mcl-1 (Homo sapiens (Human), UniProt Q07820); assay: TR-FRET binding assay, FITC-Bak peptide and MBP-tagged Mcl-1; settings: read-out: Ki for Inhibition of Mcl-1 by TR-FRET assay
Experimental: Compounds are diluted in DMSO in a 16-point, semilog serial dilution scheme. […] The plate was mixed and incubated for 3 hours at room temperature. […] TR-FRET signal is plotted and IC50 and Ki values are calculated in the same manner as the fluorescence polarization anisotropy based competition assays.

[1] = tested on: H929 human cancer cell lines; assay: Cellular viability / proliferation (Cell TiterGlo, 72 h); format: cell-based
Procedure, shortened: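 Top dose 50 μM, serially diluted 2-fold, applied one day after seeding (1,000 cells/well, 10% FBS), DMSO below 1%.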

[2] = Homo sapiens, NCI-H929, 72 h, read-out: GI50 on cellular proliferation of H929 human cancer cell lines, H929 cells, 72 h, Cell TiterGlo, 10% FBS
[3] = H929 cells, 72 h, Cell TiterGlo, 10% FBS, read-out: GI50 on cellular proliferation of H929 human cancer cell lines

Sequence of Mcl-1 (Q07820 172-327): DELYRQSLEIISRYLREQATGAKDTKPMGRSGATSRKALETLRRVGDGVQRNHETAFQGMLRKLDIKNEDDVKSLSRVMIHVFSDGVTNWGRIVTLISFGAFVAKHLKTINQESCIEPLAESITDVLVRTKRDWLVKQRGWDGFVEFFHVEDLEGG

| Compound | Ki (Mcl-1) [nM] | GI50 [1, 2] [nM] | GI50 [1, 3] [nM] |
| --- | --- | --- | --- |
| Cc1cc(OCCCc2c3n(c4c(-c5c(C)nn(C)c5C)c(Cl)ccc24)[C@H](C)CN(c2cn(C)c4ccc(-n5ccnn5)nc24)C3=O)cc(C)c1Cl [Example 659, (R)-7-Chloro-10-(3-(4-chloro-3,5-dimethylphenoxy)propyl)-4-methyl-2-(1-methyl-5-(1H-1,2,3-triazol-1-yl)-1H-pyrrolo[3,2-b]pyridin-3-yl)-6-(1,3,5-trimethyl-1H-pyrazol-4-yl)-3,4-dihydropyrazino[1,2-a]indol-1(2H)-one] | 0.96 | 930 |  |
| Cc1cc(OCCCc2c3n(c4c(-c5c(C)nn(C)c5C)c(Cl)ccc24)[C@H](C)CN(c2cn(CC(=O)N(C)C)c4ccc(-c5ncn(C)n5)cc24)C3=O)cc(C)c1Cl [Example 560, (R)-2-(3-(7-Chloro-10-(3-(4-chloro-3,5-dimethylphenoxy)propyl)-4-methyl-1-oxo-6-(1,3,5-trimethyl-1H-pyrazol-4-yl)-3,4-dihydropyrazino[1,2-a]indol-2(1H)-yl)-5-(1-methyl-1H-1,2,4-triazol-3-yl)-1H-indol-1-yl)-N,N-dimethylacetamide] | 0.53 | 270 |  |
| Cc1cc(OCCCc2c3n(c4c(-c5c(C)nn(C)c5C)c(Cl)ccc24)[C@H](C)CN(c2cn(C)c4ccc(-c5nc(C)n(C)n5)cc24)C3=O)cc(C)c1Cl [Example 643, (R)-7-Chloro-10-(3-(4-chloro-3,5-dimethylphenoxy)propyl)-2-(5-(1,5-dimethyl-1H-1,2,4-triazol-3-yl)-1-methyl-1H-indol-3-yl)-4-methyl-6-(1,3,5-trimethyl-1H-pyrazol-4-yl)-3,4-dihydropyrazino[1,2-a]indol-1(2H)-one] | 1.3 | 340 |  |
| Cc1cc(OCCCc2c3n(c4c(-c5c(C)nc(CN6CCN(C)CC6)nc5C)c(Cl)ccc24)[C@H](C)CN(c2cn(CCN(C)C)c4ccc(C(=O)O)cc24)C3=O)cc(C)c1Cl [Example 580, (R)-3-(7-chloro-10-(3-(4-chloro-3,5-dimethylphenoxy)propyl)-6-(4,6-dimethyl-2-((4-methylpiperazin-1-yl)methyl)pyrimidin-5-yl)-4-methyl-1-oxo-3,4-dihydropyrazino[1,2-a]indol-2(1H)-yl)-1-(2-(dimethylamino)ethyl)-1H-indole-5-carboxylic acid] | < 0.2 | 960 |  |
| COCc1nc(-c2ccc3c(c2)c(N2C[C@@H](C)n4c(c(CCCOc5cc(C)c(Cl)c(C)c5)c5ccc(Cl)c(-c6c(C)nn(C)c6C)c54)C2=O)cn3C)nn1C [Example 674, (R)-7-Chloro-10-(3-(4-chloro-3,5-dimethylphenoxy)propyl)-2-(5-(5-(methoxymethyl)-1-methyl-1H-1,2,4-triazol-3-yl)-1-methyl-1H-indol-3-yl)-4-methyl-6-(1,3,5-trimethyl-1H-pyrazol-4-yl)-3,4-dihydropyrazino[1,2-a]indol-1(2H)-one] | 2.1 | 210 |  |
| Cc1cc(OCCCc2c3n(c4c(-c5c(C)nn(C)c5C)c(Cl)ccc24)[C@H](C)CN(c2cn(C)c4ccc(-c5nc6cccc(C)n6n5)cc24)C3=O)cc(C)c1Cl [Example 696, (R)-7-Chloro-10-(3-(4-chloro-3,5-dimethylphenoxy)propyl)-4-methyl-2-(1-methyl-5-(5-methyl-[1,2,4]triazolo[1,5-a]pyridin-2-yl)-1H-indol-3-yl)-6-(1,3,5-trimethyl-1H-pyrazol-4-yl)-3,4-dihydropyrazino[1,2-a]indol-1(2H)-one] | 1.1 | 1400 |  |
| Cc1cc(OCCCc2c3n(c4c(-c5c(C)cc(O)cc5C)c(Cl)ccc24)[C@H](C)CN(c2cn(C)c4ccc(C(=O)O)cc24)C3=O)cc(C)c1Cl [Example 496, (R)-3-(7-chloro-10-(3-(4-chloro-3,5-dimethylphenoxy)propyl)-6-(4-hydroxy-2,6-dimethylphenyl)-4-methyl-1-oxo-3,4-dihydropyrazino[1,2-a]indol-2(1H)-yl)-1-methyl-1H-indole-5-carboxylic acid] | 0.64 | 1200 |  |
| COCCn1c(C(=O)O)cc2cc(COC)cc(N3C[C@@H](C)n4c(c(CCCOc5cc(C)c(Cl)c(C)c5)c5ccc(Cl)c(-c6c(C)nn(C)c6C)c54)C3=O)c21 [Example 677, (R)-7-(7-chloro-10-(3-(4-chloro-3,5-dimethylphenoxy)propyl)-4-methyl-1-oxo-6-(1,3,5-trimethyl-1H-pyrazol-4-yl)-3,4-dihydropyrazino[1,2-a]indol-2(1H)-yl)-1-(2-methoxyethyl)-5-(methoxymethyl)-1H-indole-2-carboxylic acid] | < 0.2 | < 200 |  |
| CCc1ccnc(Cn2c(C(=O)O)cc3cc(C)cc(N4C[C@@H](C)n5c(c(CCCOc6cc(C)c(Cl)c(C)c6)c6ccc(Cl)c(-c7c(C)nn(C)c7C)c65)C4=O)c32)c1 [Example 627, (R)-7-(7-chloro-10-(3-(4-chloro-3,5-dimethylphenoxy)propyl)-4-methyl-1-oxo-6-(1,3,5-trimethyl-1H-pyrazol-4-yl)-3,4-dihydropyrazino[1,2-a]indol-2(1H)-yl)-1-((4-ethylpyridin-2-yl)methyl)-5-methyl-1H-indole-2-carboxylic acid] | < 0.2 | < 200 |  |
| Cc1cc(OCCCc2c3n(c4c(-c5c(C)nn(C)c5C)c(Cl)ccc24)[C@H](C)CN(c2cc(C(=O)N4CCN(C)C(=O)C4)cc4cc(C(=O)O)n(C)c24)C3=O)cc(C)c1Cl [Example 630, (R)-7-(7-chloro-10-(3-(4-chloro-3,5-dimethylphenoxy)propyl)-4-methyl-1-oxo-6-(1,3,5-trimethyl-1H-pyrazol-4-yl)-3,4-dihydropyrazino[1,2-a]indol-2(1H)-yl)-1-methyl-5-(4-methyl-3-oxopiperazine-1-carbonyl)-1H-indole-2-carboxylic acid] | < 0.2 | 9000 |  |
| COCCOCCn1c(C(=O)O)cc2cc(C)cc(N3C[C@@H](C)n4c(c(CCCOc5cc(C)c(Cl)c(C)c5)c5ccc(Cl)c(-c6c(C)ncnc6C)c54)C3=O)c21 [Example 635, (R)-7-(7-chloro-10-(3-(4-chloro-3,5-dimethylphenoxy)propyl)-6-(4,6-dimethylpyrimidin-5-yl)-4-methyl-1-oxo-3,4-dihydropyrazino[1,2-a]indol-2(1H)-yl)-1-(2-(2-methoxyethoxy)ethyl)-5-methyl-1H-indole-2-carboxylic acid] | < 0.2 | < 200 |  |
| Cc1cc(OCCCc2c3n(c4c(-c5c(C)nn(C)c5C)c(Cl)ccc24)[C@H](C)CN(c2cc(CCN4CCN(C)CC4)cc4cc(C(=O)O)n(C)c24)C3=O)cc(C)c1Cl [Example 725, (R)-7-(7-chloro-10-(3-(4-chloro-3,5-dimethylphenoxy)propyl)-4-methyl-1-oxo-6-(1,3,5-trimethyl-1H-pyrazol-4-yl)-3,4-dihydropyrazino[1,2-a]indol-2(1H)-yl)-1-methyl-5-(2-(4-methylpiperazin-1-yl)ethyl)-1H-indole-2-carboxylic acid] | < 0.2 | < 200 |  |
| Cc1cc(OCCCc2c3n(c4c(-c5c(C)nn(C)c5C)c(Cl)ccc24)[C@H](C)CN(c2cn(C)c4ccc(-n5nnnc5C)nc24)C3=O)cc(C)c1Cl [Example 679, (R)-7-Chloro-10-(3-(4-chloro-3,5-dimethylphenoxy)propyl)-4-methyl-2-(1-methyl-5-(5-methyl-JH-tetrazol-1-yl)-1H-pyrrolo[3,2-b]pyridin-3-yl)-6-(1,3,5-trimethyl-1H-pyrazol-4-yl)-3,4-dihydropyrazino[1,2-a]indol-1(2H)-one] | 3.1 |  | 940 |
| COCCn1c(C(=O)O)cc2cc(C)cc(N3C[C@@H](C)n4c(c(CCCOc5cc(C)c(Cl)c(C)c5)c5ccc(Cl)c(-c6c(C)ncnc6C)c54)C3=O)c21 [Example 594, (R)-7-(7-chloro-10-(3-(4-chloro-3,5-dimethylphenoxy)propyl)-6-(4,6-dimethylpyrimidin-5-yl)-4-methyl-1-oxo-3,4-dihydropyrazino[1,2-a]indol-2(1H)-yl)-1-(2-methoxyethyl)-5-methyl-1H-indole-2-carboxylic acid] | < 0.2 | 230 |  |
| COc1cc(N2C[C@@H](C)n3c(c(CCCOc4cc(C)c(Cl)c(C)c4)c4ccc(Cl)c(-c5c(C)nn(C)c5C)c43)C2=O)c2c(c1)cc(C(=O)O)n2Cc1cccc(C)n1 [Example 536, (R)-7-(7-Chloro-10-(3-(4-chloro-3,5-dimethylphenoxy)propyl)-4-methyl-1-oxo-6-(1,3,5-trimethyl-1H-pyrazol-4-yl)-3,4-dihydropyrazino[1,2-a]indol-2(1H)-yl)-5-methoxy-1-((6-methylpyridin-2-yl)methyl)-1H-indole-2-carboxylic acid] | < 0.2 | < 200 |  |
| Cc1cc(OCCCc2c3n(c4c(-c5c(C)nn(C)c5C)c(Cl)ccc24)[C@H](C)CN(c2cn(CC4(C)COC4)c4ccc(C(=O)O)cc24)C3=O)cc(C)c1Cl [Example 616] | < 0.2 |  | 340 |
| COCCOc1cc(N2C[C@@H](C)n3c(c(CCCOc4cc(C)c(Cl)c(C)c4)c4ccc(Cl)c(-c5c(C)ncnc5C)c43)C2=O)c2c(c1)cc(C(=O)O)n2Cc1cc(C)ccn1 [Example 573, (R)-7-(7-chloro-10-(3-(4-chloro-3,5-dimethylphenoxy)propyl)-6-(4,6-dimethylpyrimidin-5-yl)-4-methyl-1-oxo-3,4-dihydropyrazino[1,2-a]indol-2(1H)-yl)-5-(2-methoxyethoxy)-1-((4-methylpyridin-2-yl)methyl)-1H-indole-2-carboxylic acid] | < 0.2 | < 200 |  |

Source: patent US11596639B2, “Substituted indole Mcl-1 inhibitors” (Vanderbilt University, priority 2016, dated 2023)
